Results on 22 molecules are retold here after ChEMBL document CHEMBL5728173, “N4-hydroxycytidine and derivatives and anti-viral uses related thereto” (2020).

pEC50: −log10 of the molar value.

The term pEC50 denotes the negative decadic logarithm of the EC50, by convention in mol/L. A high value points to a low EC50.

One assay can be described thus: CPE Assay: Primary cytopathic effect (CPE) reduction assay. Four-concentration CPE inhibition assays are performed. Confluent or near-confluent cell culture monolayers in 96-well disposable microplates are prepared. In general terms: Damage to the host cells serves as the signal in cytopathic effect assays.
The molecule `CC1(O)[C@@H](O)[C@@H](CO)O[C@H]1n1ccc(NO)nc1=O` (stereo partly drawn) gave a pEC50 of 4.14.
On the same count and under the same terms, next, `O=c1nc(NO)ccn1[C@@H]1O[C@H](COP2(=O)OCc3ccccc3O2)[C@H](O)C1O` (stereo partly drawn): 4.97; `CONc1ccn([C@@H]2O[C@H](CO)[C@H](O)C2(C)O)c(=O)n1` (stereo partly drawn): below 4.12; `CCCCCCCNC(=O)ONc1ccn([C@@H]2O[C@H](CO)[C@H](O)C2O)c(=O)n1` (stereo partly drawn): 4.54.
On the same count and under the same terms, next, `CNC(=O)ONc1ccn([C@@H]2O[C@H](CO)[C@H](O)C2O)c(=O)n1` (stereo partly drawn): 4.49.
The same measure, in the same setting: the value for `CCCCCCCNC(=O)ONc1ccn([C@H]2O[C@H](CO)[C@H](O)C2O)c(=O)n1` (stereo partly drawn) was 4.42.
As for `O=c1nc(NO)ccn1[C@@H]1O[C@H](CO)[C@H](O)C1F` (stereo partly drawn), the pEC50 was below 4.12.
The same measure, in the same setting: the value for `CCCCCCCNC(=O)OC[C@H]1O[C@@H](n2ccc(NO)nc2=O)C(O)[C@H]1O` (stereo partly drawn) was below 4.11; that for `CC(C)(C)C(=O)OCOP(=O)(OCOC(=O)C(C)(C)C)OC[C@@]1(N=[N+]=[N-])O[C@@H](n2ccc(=O)[nH]c2=O)C(O)[C@H]1O` (stereo partly drawn) was 4.25; that for `CCCCCCCCCCCCCCCCNC(=O)ONc1ccn([C@@H]2O[C@H](CO)[C@H](O)C2O)c(=O)n1` (stereo partly drawn) was below 4.11.
On the same count and under the same terms, the value for `O=c1ccn([C@@H]2O[C@H](CO)[C@H](O)C23CC3(F)F)c(=O)[nH]1` (stereo partly drawn) was below 4.11.
Same read-out and setting: next, `CCOP(=O)(OCC)OC[C@H]1O[C@@H](n2ccc(NO)nc2=O)C(O)[C@H]1O` (stereo partly drawn): below 4.11.
The molecule `NNc1ccn([C@@H]2O[C@H](CO)[C@H](O)C2O)c(=O)n1` (stereo partly drawn) had a negative-log EC50 (pEC50) below 4.11.
On the same count and under the same terms, next, `O=c1nc(NO)cc[nH]1` [N4-hydroxycytosine]: below 4.11; `C#CC1(O)[C@@H](O)[C@@H](COP(=O)(OCOC(=O)C(C)(C)C)OCOC(=O)C(C)(C)C)O[C@H]1n1ccc(=O)[nH]c1=O` (stereo partly drawn): 4.19; `CC(C)(C)C(=O)OCOP(=O)(OCOC(=O)C(C)(C)C)OC[C@H]1O[C@@H](n2ccc(=O)[nH]c2=O)C(C)(F)[C@H]1O` (stereo partly drawn): 4.24.
Same read-out and setting: next, `CC1(F)[C@@H](O)[C@@H](CO)O[C@H]1n1ccc(NO)nc1=O` (stereo partly drawn): below 4.12; `CCCCCCCCCCCCCCCCOCCCOP(=O)(O)OC[C@H]1O[C@@H](n2ccc(NO)nc2=O)C(O)[C@H]1O` (stereo partly drawn): 4.46; `CCCCCCCCC(=O)OC[C@H]1O[C@@H](n2ccc(NO)nc2=O)C(O)[C@H]1O` (stereo partly drawn): 6.52.
For the molecule `CN(C)C(=O)ONc1ccn([C@@H]2O[C@H](CO)[C@H](O)C2O)c(=O)n1` (stereo partly drawn), the negative-log EC50 (pEC50) was 4.60.
The molecule `CC1(O)[C@H]2OP(=O)(Oc3ccccc3)OC[C@H]2O[C@H]1n1ccc(=O)[nH]c1=O` (stereo partly drawn) gave a pEC50 below 4.11.

The nature of the next assay: antiviral activity: Several derivatives of EIDD-01931 have shown antiviral activity in screening against various viruses. Activity data is shown in the tables below. Norovirus SARS Coronavirus GT1 Orbani HG23 Vero 76.
The molecule `CC1(O)[C@@H](O)[C@@H](CO)O[C@H]1n1ccc(NO)nc1=O` (stereo partly drawn) gave a pEC50 below 3.44.
The molecule `O=c1nc(NO)ccn1[C@@H]1O[C@H](CO)[C@H](O)C1O` (stereo partly drawn) had a pEC50 below 2.41.
